Patent US11279708B2, “Amidino- and amino-rocaglates as novel translation inhibitors and anticancer agents” (priority 2019, dated 2022)

Legend:
NIH/3T3 cells = test: Sulforhodamine B (SRB) cytotoxicity assay; type: cell-based
Description: In cellula activity of rocaglates. All compounds in the rocaglate collection were assessed for cytotoxic activity towards NIH/3T3 cells as well as the rocaglate-resistant line, eIF4A^em1JP, which harbors an F163L mutation in eIF4A1. This mutation was originally identified following selection for RocA-resistant yeast mutants and F163 was subsequently shown to be critical for stacking with ring C of RocA (2) (FIG. 4). Although eIF4A2 is also a target of rocaglates, eIF4A1 F163L is sufficient to confer resistance to rocaglate-induced translation inhibition and cytotoxicity, likely due to eIF4A1 being the more abundant isoform in NIH/3T3 cells (250-fold higher). […] Lastly, although effective at inhibiting cap-dependent translation in vitro, WGD-57-591 (no activity @ 40 nM) and WGD-57-590 (12% growth inhibition @ 40 nM) performed poorly in this assay.
Sulforhodamine B (SRB) assay. NIH/3T3 cells were seeded at a density of 1000 cells/well in a 96 well format and incubated in presence of each 40 nM compound. After 4 days of culture, cells were washed with PBS, fixed with 50% trichloroacetic (TCA) acid for 1 hour, and then stained with 0.5% sulforhodamine B in 1% acetic acid for 15 min. Plates were then washed 5 times with 1% acetic acid, dried, and the stained wells were resuspended with 10 mM Tris (pH 9) prior to measuring the absorbance at 510 nm using (Spectramax M5, Molecular Devices)
FIGS. 26A-26B. In cellula activity of rocaglates. 26A. Cytotoxicity of rocaglates towards NIH/3T3 (grey circle) and the NIH/3T3 rocaglate-resistant line, eIF4A^em1JP(redtriangle). Cells were exposed to 40 nM compound for 4 days and viability was measured using the SRB assay. n=3±SD. 26B. Rocaglates show different sequence preferences for inhibiting cap-dependent translation in cellula. HEK 293 cells were transfected with 0.5 μg of in vitro synthesized capped (AG)10-FF/HCV/Ren or (UC)10-FF/HCV/Ren mRNA and 1h later exposed to the indicated concentrations of compounds for an additional 6 h, at which time extracts were prepared and luciferase activity measured. n=3 SD.

eIF4A1:poly r(AG)8 RNA = molecular target: T1, eIF4A1:poly r(AG)8 RNA (Homo sapiens, UniProt P60842); test: fluorescence polarization (FP) assay, eIF4A1 binding to FAM-labelled RNA; conditions: 500 nM eIF4A1, 10 nM FAM-labelled RNA, screen at 10 μM compound
T1 construct: His6 (N); made in house; host or cells: E. coli BL21 (DE3)
T1 sequence (P60842 whole entry, species assumed): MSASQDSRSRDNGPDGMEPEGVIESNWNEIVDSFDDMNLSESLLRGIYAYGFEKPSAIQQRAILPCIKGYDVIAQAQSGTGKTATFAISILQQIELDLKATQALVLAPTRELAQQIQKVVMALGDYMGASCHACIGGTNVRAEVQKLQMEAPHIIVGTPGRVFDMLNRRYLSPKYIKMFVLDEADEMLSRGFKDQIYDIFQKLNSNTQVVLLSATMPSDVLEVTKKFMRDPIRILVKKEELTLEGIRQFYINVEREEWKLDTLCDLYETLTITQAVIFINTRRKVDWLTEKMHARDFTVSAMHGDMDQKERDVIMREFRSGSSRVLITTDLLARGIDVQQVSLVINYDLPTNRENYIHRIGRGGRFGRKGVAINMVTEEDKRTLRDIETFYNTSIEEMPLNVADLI
Excerpt: Rocaglates similarly enhance RNA binding of eIF4A1 and eIF4A2. In order to rapidly evaluate the ability of rocaglates to stimulate binding of eIF4A to RNA, a fluorescence polarization (FP) assay using a FAM (fluorescein amidite)-labelled RNA probe (FIG. 18A) was used. […] Due to the high degree of shared amino acid identity between the two paralogs, their apparent similarity with respect to RNA binding activity and response to CR-1-31-B (23), and the fact that eIF4A1 is essential but eIF4A2 is not, eIF4A1 was used in the majority of our subsequent experiments.
Fluorescence Polarization (FP) Assays. Unless otherwise specified, eIF4A (500 nM) was incubated with 10 nM FAM-labelled RNA for 30 min in FP buffer (14.4 mM HEPES-NaOH (pH 8), 108 mM NaCl, 1 mM MgCl2, 14.4% glycerol, 0.1% DMSO, 2 mM DTT, 1 mM AMPPNP) at room temperature in black low volume 384 well plates (Corning 3820). FP readings were performed on a Pherastar FS microplate reader (BMG Labtech).
FIGS. 19A-19C. Rocaglate activity profiling. 19A. Assessing eIF4A1:poly r(AG)8 (SEQ ID NO: 2) RNA binding by FP in the presence of 10 μM rocaglate. Values are expressed relative to vehicle controls and data is rank ordered. n=3±SD. 19B. The change in polarization obtained with eIF4A1:poly r(AG)8 (SEQ ID NO: 2) and eIF4A2:poly r(AG)8 (SEQ ID NO: 2) RNA. Pearson r=0.814; p<0.0001. 19C. Inhibition of cap-dependent translation by rocaglates was measured using the indicated mRNA bicistronic reporter (4 ng/ul) in Krebs-2 extracts at a final compound concentration of 2 μM. n=3±SD.
FIG. 21. Assessing stimulation of eIF4A1:RNA binding by rocaglates and pateamine. FAM-labelled RNA was incubated in the presence of 500 nM eIF4A1 and the indicated concentrations of compound for 30 min, after which time FP measurements were taken. Limitations in WGD-57-591 availability prevented us from extending the titrations to 100 μM. The change in FP obtained relative to vehicle controls is presented. n=3±SD. FP results of competition assays in which preformed eIF4A1:rocaglate:FAM-poly r(AG)10 complexes were incubated in the presence of poly r(AG)10 (SEQ ID NO: 39) and dissociation measured as a function of time. n=3±SD.

eIF4A1 = molecular target: T2, eIF4A1 (Oryctolagus cuniculus, UniProt P29562); test: RNA pulldowns (RPDs) with biotinylated RNA baits in translation extracts; type: binding, Rabbit; conditions: 500 nM rocaglate, retic lysate
T2 construct: Rabbit reticulocyte lysates (Promega) were pre-incubated with 500 nM of the indicated compound; tissue Promega; host or cells: rabbit reticulocyte lysate
T2 sequence (P29562 whole entry): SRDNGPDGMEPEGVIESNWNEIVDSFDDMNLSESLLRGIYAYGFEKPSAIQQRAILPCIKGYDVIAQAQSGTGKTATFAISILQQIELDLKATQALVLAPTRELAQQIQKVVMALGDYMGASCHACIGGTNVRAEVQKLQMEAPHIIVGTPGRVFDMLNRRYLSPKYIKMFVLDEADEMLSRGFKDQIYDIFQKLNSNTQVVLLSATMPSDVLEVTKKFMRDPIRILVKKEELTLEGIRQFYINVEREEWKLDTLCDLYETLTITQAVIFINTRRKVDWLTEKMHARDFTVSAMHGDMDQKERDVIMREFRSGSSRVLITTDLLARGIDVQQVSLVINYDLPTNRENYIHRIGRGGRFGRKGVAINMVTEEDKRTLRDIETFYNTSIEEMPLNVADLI
Description: To determine the ability of rocaglates to recruit eIF4A to RNA in translation extracts, RNA pulldowns (RPDs) using 30 nt polypurine—or polypyrimidine-biotinylated RNA baits were performed. RNA baits were added to in vitro translation extracts in the presence or absence of rocaglate followed by purification using immobilized streptavidin. […] When the RPDs were performed using ApppG-capped RNA with purified eIF4A1 or eIF4F rather than translation extracts, an increase in eIF4A1:polypyrimidine RNA association with silvestrol was not observed (FIG. 25B).
RNA Pull Down (RPD) Experiments. Rabbit reticulocyte lysates (Promega) were pre-incubated with 500 nM of the indicated compound for 15 minutes at 30° C. prior to the addition of m7GpppG- or ApppG-capped biotinylated RNAs (added to a final concentration of 1 μM biotinylated RNA bait). The reactions were incubated for an additional 15 minutes at 30° C. and then diluted 10× with ice cold wash buffer (0.5% v/v NP-40, 50 mM HEPES (pH 7.3), 150 mM KCl, 2 mM EDTA, 2 mM MgC2,). Magnetic streptavidin beads (NEB) were used to capture the biotinylated RNA baits and the reactions were incubated end over end for 1 hour at 4° C. The beads were then washed three times with ice cold wash buffer (10 minutes per wash) and the RNA bound proteins were eluted by digesting with 50 U of RNaseI (Ambion, AM2294) for 15 minutes at 37° C. Eluted proteins were analyzed by Western blotting.
FIGS. 25A-25B. […] 25A. RPDs performed with the indicated m^7GpppG- or ApppG-capped RNA species incubated in the presence of retic lysate and either vehicle or 500 nM rocaglate. 25B. RPDs performed with m^7GpppG-capped RNA species incubated in the presence of recombinant eIF4A (125 nM) eIF4F or Krebs-2 extracts and either vehicle or 500 nM silvestrol.

SMILES	rank among the top 15 cytotoxic rocaglates (NIH/3T3 cells; 40 nM, 4 days)	stimulation of eIF4A1:RNA binding (in words) (eIF4A1:poly r(AG)8 RNA)	IC50 (NIH/3T3 cells; 4 day exposure, read-out: IC50, cytotoxicity towards NIH/3T3 cells)	recruitment of eIF4A1 to RNA baits (in words) (eIF4A1)	stimulation of eIF4A1:RNA binding (in words) (eIF4A1:poly r(AG)8 RNA; listed as Silvestrol)
COC(=O)[C@@H]1[C@@H](c2ccccc2)[C@]2(c3ccc(OC)cc3)Oc3cc(OC)cc(OC)c3[C@@]23N=C(C)N[C@@]13O [9b]	10th				
CONC(=O)[C@H]1[C@@H](O)[C@@]2(O)c3c(OC)cc(OC)cc3O[C@@]2(c2ccc(OC)cc2)[C@@H]1c1ccccc1 [CR-1-31-B]		preferentially stimulated binding of eIF4A1 to RNA harboring polypurine bases	~8.5 nM	eIF4A1 was recruited to the purine-rich mRNA template in a cap-independent manner	
COc1ccc([C@@]23Oc4cc(OC)cc(OC)c4[C@]2(O)[C@H](O)[C@H](C(=O)N(C)C)[C@H]3c2ccccc2)cc1 [RocA, rocaglamide A]		activity similar to CR-1-31-B		eIF4A1 was recruited to the purine-rich mRNA template in a cap-independent manner	
COC(=O)[C@H]1[C@@H](O)[C@@]2(O)c3c(OC)cc(O[C@@H]4O[C@@H]([C@H](O)CO)CO[C@H]4OC)cc3O[C@@]2(c2ccc(OC)cc2)[C@@H]1c1ccccc1 [silvestrol]		less potent across the concentrations tested		induced eIF4A1 binding to both the polypurine and polypyrimidine baits	relatively weak activity
